{"source": "ChEMBL document CHEMBL5543113", "about": "“Amphiphilic α-Peptoid-deoxynojirimycin Conjugate-based Multivalent Glycosidase Inhibitor for Hypoglycemic Effect and Fluorescence Imaging” (J Med Chem, 2024)", "key": {"[1]": {"assay": "Self assembly property of compound assessed as Nilered-compound complex formation by measuring critical micellar concentration at 638 nm by Nile red dye based fluorescence analysis", "assay_type": "physicochemical"}, "[2]": {"assay": "Cytotoxicity against human GES1 cells assessed as viable cells at 125 uM incubated for 44 hrs by MTT assay relative to control", "assay_type": "toxicity, cell-based", "details": "read-out: Activity"}, "[3]": {"assay": "Stability of compound assessed as fluorescence intensity at 2 x 10^-4 M administered as Nile red complex at pH 1.0 to 7.0 by fluorescence spectra analysis 9Rvb = 3548)", "assay_type": "physicochemical", "details": "pH 1, 200 µM; dose 2 10^-4M"}, "Mus musculus [4]": {"system": "Mus musculus", "assay": "Hypoglycemic activity in C57BL/6J mouse assessed as blood glucose level at 1.6 mg/kg, po co-administered with maltose and measured after 30 mins by glucometer (380.8 +/- 20.6 mg/dL)", "assay_type": "functional", "details": "0.5 h"}, "[5]": {"molecular_target": "Alpha-glucosidase (Saccharomyces cerevisiae S288c) (UniProt P53341+P38158+P07265)", "assay": "Inhibition of Saccharomyces cerevisiae Alpha-glucosidase at 1 mM incubated for 10 mins by absorbance based microplate spectrophotometric analysis", "assay_type": "protein assay"}, "Mus musculus [6]": {"system": "Mus musculus", "assay": "Hypoglycemic activity in C57BL/6J mouse assessed as decrease in PBG level at 1.6 mg/kg, po co-administered with maltose and measured after 30 mins by glucometer relative to control", "assay_type": "functional", "parameters": "scale not given: the % may be the effect or the level left", "details": "0.5 h"}, "Aspergillus niger": {"system": "Aspergillus niger", "assay": "Potency index, ratio of 1-deoxynojirimycin Ki to test compound Ki for inhibition of Aspergillus niger Alpha-glucosidase incubated for 10 mins by Lineweaver-Burk plot analysis"}, "Mus musculus [7]": {"system": "Mus musculus", "assay": "Hypoglycemic activity in C57BL/6J mouse assessed as blood glucose level at 0.4 mg/kg, po co-administered with maltose and measured after 30 mins by glucometer (380.8 +/- 20.6 mg/dL)", "assay_type": "functional", "details": "0.5 h"}, "Mus musculus [8]": {"system": "Mus musculus", "assay": "Hypoglycemic activity in C57BL/6J mouse assessed as decrease in PBG level at 1.6 mg/kg, po co-administered with maltose and measured after 15 mins by glucometer relative to control", "assay_type": "functional", "parameters": "scale not given: the % may be the effect or the level left", "details": "0.25 h"}, "Mus musculus [9]": {"system": "Mus musculus", "assay": "Relative hypoglycemic rate in KKAy diabetic mouse model assessed as molar reduction in PBG level by measuring fold change at 1.6 mg/kg, po co-administered with maltose and measured after 30 mins by glucometer relative to miglitol", "assay_type": "functional", "details": "0.5 h"}, "[10]": {"assay": "Inhibition of C57BL/6J mouse Alpha-glucosidase incubated for 10 mins by Lineweaver-Burk plot analysis"}, "[11]": {"assay": "Self assembly property of the compound assessed as diameter at 7.5 x 10^-5 mol/L by dynamic light scattering spectrometric analysis", "assay_type": "physicochemical", "details": "75 µM; dose 7.5 10^-5mol/L"}, "Mus musculus [12]": {"system": "Mus musculus", "assay": "Hypoglycemic activity in KKAy diabetic mouse model assessed as decrease in PBG level at 1.6 mg/kg, po co-administered with maltose and measured after 15 mins by glucometer relative to control", "assay_type": "functional", "parameters": "scale not given: the % may be the effect or the level left", "details": "0.25 h"}, "[13]": {"assay": "Inhibition of rice Alpha-glucosidase incubated for 10 mins by Lineweaver-Burk plot analysis", "parameters": "species or system Oryza sativa"}, "[14]": {"assay": "Binding affinity to mouse alpha-glucosidase assessed as binding constant administered as Nile red complex by fluorescence spectra analysis"}, "Mus musculus [15]": {"system": "Mus musculus", "assay": "Hypoglycemic activity in C57BL/6J mouse assessed as blood glucose level at 0.4 mg/kg, po co-administered with maltose and measured after 15 mins by glucometer (380.8 +/- 20.6 mg/dl)", "assay_type": "functional", "details": "0.25 h"}, "Mus musculus [16]": {"system": "Mus musculus", "assay": "Hypoglycemic activity in KKAy diabetic mouse model assessed as molar decrease in PBG level at 1.6 mg/kg, po co-administered with maltose and measured after 30 mins by glucometer relative to control", "assay_type": "functional", "parameters": "scale not given: the % may be the effect or the level left", "details": "0.5 h"}, "[17]": {"assay": "Binding affinity to mouse alpha-glucosidase assessed as DNJ binding constant at 2 x 10^-4 M administered as Nile red complex in presence of DNJ by fluorescence spectra analysis"}, "[18]": {"assay": "Self assembly property of the compound in water assessed as diameter at 1 x 10^-4 M by transmission electron microscopic analysis", "assay_type": "physicochemical", "details": "buffer, 100 µM; dose 1 10^-4M"}, "[19]": {"assay": "Stability of compound in simulated gastric fluid assessed as fluorescence intensity at 2 x 10^-4 M administered as Nile red complex by fluorescence spectra analysis (reference value: 3548)", "assay_type": "ADME", "details": "simulated gi fluid, 200 µM; dose 2 10^-4M"}, "Mus musculus [20]": {"system": "Mus musculus", "assay": "Hypoglycemic activity in C57BL/6J mouse assessed as blood glucose level at 0.8 mg/kg, po co-administered with maltose and measured after 15 mins by glucometer (380.8 +/- 20.6 mg/dl)", "assay_type": "functional", "details": "0.25 h"}, "[21]": {"assay": "Self assembly property of the compound assessed as diameter at 2 x 10^-4 mol/L by dynamic light scattering spectrometric analysis", "assay_type": "physicochemical", "details": "200 µM; dose 2 10^-4mol/L"}, "[22]": {"assay": "Self assembly property of compound assessed as Nilered-compound complex formation by measuring increase in fluorescence intensity by Nile red dye based fluorescence analysis", "assay_type": "physicochemical"}, "[23]": {"assay": "Drug uptake in C57/6J mouse liver assessed as increase in fluorescence at 5 x 10^-5M, po administered as Nile red complex and measured after 4 hrs by fluorescence imaging analysis", "assay_type": "ADME, organism-based", "details": "in vivo, dose 5 10^-5M"}, "[24]": {"assay": "Inhibition of Aspergillus niger Alpha-glucosidase incubated for 10 mins by Lineweaver-Burk plot analysis"}, "Mus musculus [25]": {"system": "Mus musculus", "assay": "Hypoglycemic activity in KKAy diabetic mouse model assessed as blood glucose level at 1.6 mg/kg, po co-administered with maltose and measured after 15 mins by glucometer (reference value: 582.6 +/- 22.9 mg/dl)", "assay_type": "functional", "details": "0.25 h"}, "Mus musculus [26]": {"system": "Mus musculus", "assay": "Relative hypoglycemic rate in C57BL/6J mouse assessed as reduction in PBG level by measuring fold change at 1.6 mg/kg, po co-administered with maltose and measured after 30 mins by glucometer relative to miglitol", "assay_type": "functional", "details": "0.5 h"}, "[27]": {"assay": "Toxicity in C57BL/6J mouse assessed as effect on heart morphology at 1.6 mg/kg, po co-administered with maltose for 7 days by Hematoxylin and eosin staining based analysis", "assay_type": "organism-based", "details": "in vivo, 168 h, time 7 day"}, "Mus musculus [28]": {"system": "Mus musculus", "assay": "Binding affinity to mouse alpha-glucosidase assessed as DNJ fluorescence intensity at 2 x 10^-4 M administered as Nile red complex in presence of DNJ by fluorescence spectra analysis (reference value: 1627)", "details": "dose 2.0 10^-4M"}, "[29]": {"assay": "Drug uptake in C57/6J mouse lung assessed as increase in fluorescence at 5 x 10^-5M, po administered as Nile red complex and measured after 4 hrs by fluorescence imaging analysis", "assay_type": "ADME, organism-based", "details": "in vivo, dose 5 10^-5M"}, "Oryza sativa": {"system": "Oryza sativa", "assay": "Potency index, ratio of miglitol Ki to test compound Ki for inhibition of rice Alpha-glucosidase incubated for 10 mins by Lineweaver-Burk plot analysis"}, "[30]": {"assay": "Toxicity in C57BL/6J mouse assessed as effect on kidney morphology at 1.6 mg/kg, po co-administered with maltose for 7 days by Hematoxylin and eosin staining based analysis", "assay_type": "organism-based", "details": "in vivo, 168 h, time 7 day"}, "Mus musculus [31]": {"system": "Mus musculus", "assay": "Hypoglycemic activity in C57BL/6J mouse assessed as reduction in PBG level measured per DNJ unit at 1.6 mg/kg, po co-administered with maltose and measured at 15 to 30 mins by glucometer relative to control", "assay_type": "functional", "parameters": "scale not given: the % may be the effect or the level left", "details": "time 15-30 min"}, "[32]": {"assay": "Self assembly property of compound in citric acid-phosphate buffer at pH 2 to 7 at 1 x 10^-4 M assessed as diameter by dynamic light scattering spectrometric analysis", "assay_type": "physicochemical", "details": "pH 2, 100 µM, dose 1 10^-4M"}}, "note": "pKi: −log10 of the molar value. Activity calls are given as the source filed them. No cut-off for these calls is given here.", "data": [{"smiles": "CCCCCCCCCCCCCCCCCCNC(=O)CN(Cc1cn(CCCCCCN2C[C@H](O)[C@@H](O)[C@H](O)[C@H]2CO)nn1)C(=O)CN(Cc1cn(CCCCCCN2C[C@H](O)[C@@H](O)[C@H](O)[C@H]2CO)nn1)C(=O)CN(Cc1cn(CCCCCCN2C[C@H](O)[C@@H](O)[C@H](O)[C@H]2CO)nn1)C(=O)CN(Cc1cn(CCCCCCN2C[C@H](O)[C@@H](O)[C@H](O)[C@H]2CO)nn1)C(C)=O", "values": [{"measurement": "CAC", "setting": "[1]", "value": "8.31 10^-5M"}, {"measurement": "viability at 44 h, 125 µM", "setting": "[2]", "value": "> 80", "unit": "%"}, {"measurement": "Flu intensity", "setting": "[3]", "value": 1001}, {"measurement": "Activity", "setting": "Mus musculus [4]", "value": 230.4, "unit": "mg/dL"}, {"measurement": "inhibition", "setting": "[5]", "value": "inactive"}, {"measurement": "Activity", "setting": "Mus musculus [6]", "value": 39.5, "unit": "%"}, {"measurement": "Ratio Ki", "setting": "Aspergillus niger", "value": 21.2}, {"measurement": "Activity", "setting": "Mus musculus [7]", "value": 309.9, "unit": "mg/dL"}, {"measurement": "Activity", "setting": "Mus musculus [8]", "value": 18.8, "unit": "%"}, {"measurement": "fold change (FC)", "setting": "Mus musculus [9]", "value": 6.9}, {"measurement": "pKi", "setting": "[10]", "value": 5.57}, {"measurement": "Activity", "setting": "[11]", "value": 243, "unit": "nm"}, {"measurement": "Activity", "setting": "Mus musculus [12]", "value": 6.6, "unit": "%"}, {"measurement": "pKi", "setting": "[13]", "value": 7.57}, {"measurement": "Ka", "setting": "[14]", "value": 5680, "unit": "M⁻¹"}, {"measurement": "Activity", "setting": "Mus musculus [15]", "value": 347.8, "unit": "mg/dL"}, {"measurement": "Activity", "setting": "Mus musculus [16]", "value": 7.6, "unit": "%"}, {"measurement": "Ka", "setting": "[17]", "value": 308, "unit": "M⁻¹"}, {"measurement": "Activity", "setting": "[18]", "value": 96, "unit": "nm"}, {"measurement": "Flu intensity", "setting": "[19]", "value": 862}, {"measurement": "Activity", "setting": "Mus musculus [20]", "value": 326.5, "unit": "mg/dL"}, {"measurement": "Activity", "setting": "[21]", "value": 285, "unit": "nm"}, {"measurement": "Activity", "setting": "[22]", "value": "Dose-Dependent Effect"}, {"measurement": "Drug uptake", "setting": "[23]", "value": "Not Active"}, {"measurement": "pKi", "setting": "[24]", "value": 6.77}, {"measurement": "Activity", "setting": "Mus musculus [25]", "value": 327.6, "unit": "mg/dL"}, {"measurement": "fold change (FC)", "setting": "Mus musculus [26]", "value": 1.8}, {"measurement": "Activity", "setting": "[27]", "value": "Non-Toxic"}, {"measurement": "Flu intensity", "setting": "Mus musculus [28]", "value": 2300}, {"measurement": "Drug uptake", "setting": "[29]", "value": "Not Active"}, {"measurement": "Ratio Ki", "setting": "Oryza sativa", "value": 6.7}, {"measurement": "Activity", "setting": "[30]", "value": "Non-Toxic"}, {"measurement": "Activity", "setting": "Mus musculus [31]", "value": 11.5, "unit": "%"}, {"measurement": "Activity", "setting": "[32]", "value": 138, "unit": "nm"}]}]}
